System: 429239-143-T-J1-PDC complex spheroid viability
Experiment: Anticancer human tumor 429239-143-T-J1-PDC patient-derived small cell lung carcinoma cell line growth inhibition [POLQ]
Settings: for IC50: curve of first compound; for viability, T/C: stronger effect = lower value
Summary of the method: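 Growth inhibition in 3D: complex spheroids (tumor PDC, HUVEC, MSC) treated with POLQ inhibitor combinations; where Cmax unknown, highest tested concentration 10 microM, except SN-38 at 1 microM.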

[1] = second compound 0.0316 µM, first compound 0.0316 µM
[2] = second compound 0.0316 µM, first compound 0.1 µM
[3] = second compound 0.0316 µM, first compound 0.316 µM
[4] = second compound 0.0316 µM, first compound 1 µM
[5] = second compound 0.0316 µM, first compound 3.16 µM
[6] = second compound 0.0316 µM, first compound 10 µM
[7] = second compound 0.1 µM, first compound 0.0316 µM
[8] = second compound 0.1 µM, first compound 0.1 µM
[9] = second compound 0.1 µM, first compound 0.316 µM
[10] = second compound 0.1 µM, first compound 1 µM
[11] = second compound 0.1 µM, first compound 3.16 µM
[12] = second compound 0.1 µM, first compound 10 µM
[13] = second compound 0.316 µM, first compound 0.0316 µM
[14] = second compound 0.316 µM, first compound 0.1 µM
[15] = second compound 0.316 µM, first compound 0.316 µM
[16] = second compound 0.316 µM, first compound 1 µM
[17] = second compound 0.316 µM, first compound 3.16 µM
[18] = second compound 0.316 µM, first compound 10 µM
[19] = second compound 1 µM, first compound 0.0316 µM
[20] = second compound 1 µM, first compound 0.1 µM
[21] = second compound 1 µM, first compound 0.316 µM
[22] = second compound 1 µM, first compound 1 µM
[23] = second compound 1 µM, first compound 3.16 µM
[24] = second compound 1 µM, first compound 10 µM
[25] = second compound 3.16 µM, first compound 0.0316 µM
[26] = second compound 3.16 µM, first compound 0.1 µM
[27] = second compound 3.16 µM, first compound 0.316 µM
[28] = second compound 3.16 µM, first compound 1 µM
[29] = second compound 3.16 µM, first compound 3.16 µM
[30] = second compound 3.16 µM, first compound 10 µM
[31] = second compound 10 µM, first compound 0.0316 µM
[32] = second compound 10 µM, first compound 0.1 µM
[33] = second compound 10 µM, first compound 0.316 µM
[34] = second compound 10 µM, first compound 1 µM
[35] = second compound 10 µM, first compound 3.16 µM
[36] = second compound 10 µM, first compound 10 µM
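Note: luminescence signal used as surrogate measure of viable cells; spheroids exposed to compounds for seven days before readout.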
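Throughout, for viability, T/C: 100% = DMSO vehicle control viability as luminescence relative to vehicle.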

## O=c1[nH]cc(F)c(=O)[nH]1 + COC1C(OC(N)=O)C(O)C(Oc2ccc3c(O)c(NC(=O)c4ccc(O)c(CC=C(C)C)c4)c(=O)oc3c2C)OC1(C)C
Second compound 0.0316 µM
  IC50: 9.58 µM
Second compound 0.1 µM
  IC50: 7.31 µM
Second compound 0.316 µM
  IC50: 6.05 µM
Second compound 1 µM
  IC50: 9.05 µM
Second compound 3.16 µM
  IC50: 7.96 µM
Second compound 10 µM
  IC50: 6.66 µM
[1]
  viability, T/C: 114%
[2]
  viability, T/C: 111%
[3]
  viability, T/C: 108%
[4]
  viability, T/C: 84.5%
[5]
  viability, T/C: 61.6%
[6]
  viability, T/C: 49%
[7]
  viability, T/C: 116%
[8]
  viability, T/C: 111%
[9]
  viability, T/C: 105%
[10]
  viability, T/C: 96.1%
[11]
  viability, T/C: 57%
[12]
  viability, T/C: 47.6%
[13]
  viability, T/C: 96.7%
[14]
  viability, T/C: 98%
[15]
  viability, T/C: 97%
[16]
  viability, T/C: 78.1%
[17]
  viability, T/C: 62.9%
[18]
  viability, T/C: 40.9%
[19]
  viability, T/C: 86.1%
[20]
  viability, T/C: 104%
[21]
  viability, T/C: 96.4%
[22]
  viability, T/C: 82.3%
[23]
  viability, T/C: 70.5%
[24]
  viability, T/C: 47.9%
[25]
  viability, T/C: 99.2%
[26]
  viability, T/C: 98.8%
[27]
  viability, T/C: 93%
[28]
  viability, T/C: 84.1%
[29]
  viability, T/C: 75.9%
[30]
  viability, T/C: 43.4%
[31]
  viability, T/C: 89%
[32]
  viability, T/C: 97.6%
[33]
  viability, T/C: 93.8%
[34]
  viability, T/C: 85.4%
[35]
  viability, T/C: 57.7%
[36]
  viability, T/C: 45.8%

## Cn1ncnc1[C@H]1c2n[nH]c(=O)c3cc(F)cc(c23)N[C@@H]1c1ccc(F)cc1 + Nc1ccc(C#CCN(C(=O)Cc2ncc(C(F)(F)F)cc2C(F)(F)F)c2ccc(F)cc2)nn1
Second compound 0.0316 µM
  IC50: > 0.1 µM
Second compound 0.1 µM
  IC50: > 0.1 µM
Second compound 0.316 µM
  IC50: > 0.1 µM
Second compound 1 µM
  IC50: > 0.1 µM
Second compound 3.16 µM
  IC50: > 0.1 µM
Second compound 10 µM
  IC50: > 0.1 µM
Second compound 0.0316 µM, first compound 0.000316 µM
  viability, T/C: 101%
Second compound 0.0316 µM, first compound 0.001 µM
  viability, T/C: 104%
Second compound 0.0316 µM, first compound 0.00316 µM
  viability, T/C: 89.8%
Second compound 0.0316 µM, first compound 0.01 µM
  viability, T/C: 83.4%
[1]
  viability, T/C: 83.1%
[2]
  viability, T/C: 60.8%
Second compound 0.1 µM, first compound 0.000316 µM
  viability, T/C: 101%
Second compound 0.1 µM, first compound 0.001 µM
  viability, T/C: 104%
Second compound 0.1 µM, first compound 0.00316 µM
  viability, T/C: 95.3%
Second compound 0.1 µM, first compound 0.01 µM
  viability, T/C: 83.1%
[7]
  viability, T/C: 84.7%
[8]
  viability, T/C: 60.4%
Second compound 0.316 µM, first compound 0.000316 µM
  viability, T/C: 104%
Second compound 0.316 µM, first compound 0.001 µM
  viability, T/C: 101%
Second compound 0.316 µM, first compound 0.00316 µM
  viability, T/C: 93.7%
Second compound 0.316 µM, first compound 0.01 µM
  viability, T/C: 83.8%
[13]
  viability, T/C: 79.8%
[14]
  viability, T/C: 67.1%
Second compound 1 µM, first compound 0.000316 µM
  viability, T/C: 111%
Second compound 1 µM, first compound 0.001 µM
  viability, T/C: 112%
Second compound 1 µM, first compound 0.00316 µM
  viability, T/C: 95.1%
Second compound 1 µM, first compound 0.01 µM
  viability, T/C: 87.8%
[19]
  viability, T/C: 81.7%
[20]
  viability, T/C: 58%
Second compound 3.16 µM, first compound 0.000316 µM
  viability, T/C: 106%
Second compound 3.16 µM, first compound 0.001 µM
  viability, T/C: 91.4%
Second compound 3.16 µM, first compound 0.00316 µM
  viability, T/C: 94.2%
Second compound 3.16 µM, first compound 0.01 µM
  viability, T/C: 95.2%
[25]
  viability, T/C: 75.8%
[26]
  viability, T/C: 69.8%
Second compound 10 µM, first compound 0.000316 µM
  viability, T/C: 108%
Second compound 10 µM, first compound 0.001 µM
  viability, T/C: 91.7%
Second compound 10 µM, first compound 0.00316 µM
  viability, T/C: 101%
Second compound 10 µM, first compound 0.01 µM
  viability, T/C: 87.9%
[31]
  viability, T/C: 74.2%
[32]
  viability, T/C: 60.2%

## C#Cc1c(F)ccc2cc(O)cc(-c3ncc4c(N5CC6CCC(C5)N6)nc(OCC56CCCN5CC(F)C6)nc4c3F)c12 (stereo not drawn) + Nc1ccc(C#CCN(C(=O)Cc2ncc(C(F)(F)F)cc2C(F)(F)F)c2ccc(F)cc2)nn1
Second compound 0.0316 µM
  IC50: > 10 µM
Second compound 0.1 µM
  IC50: > 10 µM
Second compound 0.316 µM
  IC50: > 10 µM
Second compound 1 µM
  IC50: > 10 µM
Second compound 3.16 µM
  IC50: > 10 µM
Second compound 10 µM
  IC50: > 10 µM
[1]
  viability, T/C: 98.6%
[2]
  viability, T/C: 106%
[3]
  viability, T/C: 103%
[4]
  viability, T/C: 109%
[5]
  viability, T/C: 102%
[6]
  viability, T/C: 89.3%
[7]
  viability, T/C: 103%
[8]
  viability, T/C: 107%
[9]
  viability, T/C: 102%
[10]
  viability, T/C: 98.7%
[11]
  viability, T/C: 101%
[12]
  viability, T/C: 95%
[13]
  viability, T/C: 106%
[14]
  viability, T/C: 93%
[15]
  viability, T/C: 102%
[16]
  viability, T/C: 100%
[17]
  viability, T/C: 99.9%
[18]
  viability, T/C: 96.9%
[19]
  viability, T/C: 102%
[20]
  viability, T/C: 99.8%
[21]
  viability, T/C: 105%
[22]
  viability, T/C: 105%
[23]
  viability, T/C: 99.7%
[24]
  viability, T/C: 93.1%
[25]
  viability, T/C: 99.4%
[26]
  viability, T/C: 98%
[27]
  viability, T/C: 106%
[28]
  viability, T/C: 93.8%
[29]
  viability, T/C: 103%
[30]
  viability, T/C: 96.8%
[31]
  viability, T/C: 93.9%
[32]
  viability, T/C: 106%
[33]
  viability, T/C: 97.4%
[34]
  viability, T/C: 102%
[35]
  viability, T/C: 101%
[36]
  viability, T/C: 90.5%

## C=CC(=O)N1CCN(c2nc(=O)n(-c3c(C)ccnc3C(C)C)c3nc(-c4c(O)cccc4F)c(F)cc23)C(C)C1 (stereo not drawn) + COC1C(OC(N)=O)C(O)C(Oc2ccc3c(O)c(NC(=O)c4ccc(O)c(CC=C(C)C)c4)c(=O)oc3c2C)OC1(C)C
Second compound 0.0316 µM
  IC50: > 10 µM
Second compound 0.1 µM
  IC50: > 10 µM
Second compound 0.316 µM
  IC50: > 10 µM
Second compound 1 µM
  IC50: > 10 µM
Second compound 3.16 µM
  IC50: > 10 µM
Second compound 10 µM
  IC50: > 10 µM
[1]
  viability, T/C: 107%
[2]
  viability, T/C: 89.5%
[3]
  viability, T/C: 94%
[4]
  viability, T/C: 94.6%
[5]
  viability, T/C: 107%
[6]
  viability, T/C: 112%
[7]
  viability, T/C: 104%
[8]
  viability, T/C: 94.3%
[9]
  viability, T/C: 93.6%
[10]
  viability, T/C: 104%
[11]
  viability, T/C: 87.9%
[12]
  viability, T/C: 97.7%
[13]
  viability, T/C: 96.7%
[14]
  viability, T/C: 90.8%
[15]
  viability, T/C: 91.7%
[16]
  viability, T/C: 91.7%
[17]
  viability, T/C: 103%
[18]
  viability, T/C: 101%
[19]
  viability, T/C: 98.4%
[20]
  viability, T/C: 94.6%
[21]
  viability, T/C: 99.8%
[22]
  viability, T/C: 96.6%
[23]
  viability, T/C: 103%
[24]
  viability, T/C: 101%
[25]
  viability, T/C: 94.9%
[26]
  viability, T/C: 107%
[27]
  viability, T/C: 95.3%
[28]
  viability, T/C: 95.3%
[29]
  viability, T/C: 98.7%
[30]
  viability, T/C: 103%
[31]
  viability, T/C: 79.5%
[32]
  viability, T/C: 84.8%
[33]
  viability, T/C: 91.5%
[34]
  viability, T/C: 87.7%
[35]
  viability, T/C: 104%
[36]
  viability, T/C: 103%
